In patent publication US10662146B2, “Prodrugs of fencamfamine” (Praxis Bioresearch, LLC, priority 2015, dated 2020):
“Also recorded” adds a separate entry of the source.

Tested on: spontaneous locomotor activity
Experiment: Spontaneous locomotor activity (sLMA), oral administration
Format: in vivo, Male Sprague-Dawley (SD) rats
Settings: p.o. 1, 5 or 10 mg/kg equivalent of PRX-002 (−), 60 min before 60 min test, vs vehicle
Protocol: Male Sprague-Dawley (SD) were housed in groups of three under controlled conditions. Water and food were available ad libitum. The rats were kept for 1 week under these conditions before behavioral test. On the day of test rats were allowed to acclimate to the testing room for at least 30 min before test compound administration. Rats were randomly assigned into 4 groups.
Vehicle was 0.1% Tween-80 and 0.5% carboxymethylcellulose to which respective amount of PRX-P4-003 was added to obtain a clear solution.
Animals were p.o. administered with Veh or 3 doses of PRX-P4-003 [1, 5 or 10 mg/kg equivalent dose of active compound PRX-002 (−)] at 60 min before spontaneous locomotor activity (sLMA) test.
The rat was placed at the center of test chamber for the 60 min sLMA video recording. 60 min of spontaneous locomotion activity was video recorded and off line analyzed with Animal Behavior Video Tracking Analysis System (Ji Liang Software Technology Co., Ltd., Shanghai, China). Total traveling distance (cm) and duration (sec) of locomotor activity of every 15 min is presented FIGS. 11A and 11B.

CCCCCCCCCCCCCCCCCC(=O)OCOC(=O)N(CC)C1C2CCC(C2)C1c1ccccc1 (single isomer, unassigned) [PRX-P4-003, N-(Octadecanoyloxymethoxycarbonyl)-(−)-N-ethyl-3-phenylbicyclo[2.2.1]heptan-2-amine]
Spontaneous locomotor activity (sLMA): total traveling distance and duration: dose dependent increase in sLMA; also recorded: both traveling distance and locomotion duration increased
